In PMC2867072 (Chemical communications (Cambridge, England), 2010):
Read-outs that look alike come from different tables or passages of the source.

Assays:
[1] = target: MMP-9 (gelatinase-B) (Homo sapiens, UniProt P14780); assay: fluorescence-based MMP-9 inhibition assay; assay type: biochemical; details: for inhibition at 1000 µM: read-out: percent inhibition of MMP-9
[2] = target: MMP-8 (Homo sapiens, UniProt P22894); assay: fluorescence-based MMP-8 inhibition assay; assay type: biochemical; details: MMP-8, fluorescence based assay
Sequence of MMP-8 (P22894 101-467, species assumed): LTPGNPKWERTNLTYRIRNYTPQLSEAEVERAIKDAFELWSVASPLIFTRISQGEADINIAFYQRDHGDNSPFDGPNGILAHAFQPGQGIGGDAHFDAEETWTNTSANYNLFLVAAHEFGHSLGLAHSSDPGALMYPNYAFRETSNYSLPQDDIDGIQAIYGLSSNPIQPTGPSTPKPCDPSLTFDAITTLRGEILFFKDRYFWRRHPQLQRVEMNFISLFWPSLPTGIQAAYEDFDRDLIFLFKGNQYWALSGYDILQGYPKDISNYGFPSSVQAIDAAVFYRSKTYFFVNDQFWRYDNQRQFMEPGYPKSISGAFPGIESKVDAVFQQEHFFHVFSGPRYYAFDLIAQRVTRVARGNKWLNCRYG

Sequence of MMP-9 (gelatinase-B) (P14780 94-707, species assumed): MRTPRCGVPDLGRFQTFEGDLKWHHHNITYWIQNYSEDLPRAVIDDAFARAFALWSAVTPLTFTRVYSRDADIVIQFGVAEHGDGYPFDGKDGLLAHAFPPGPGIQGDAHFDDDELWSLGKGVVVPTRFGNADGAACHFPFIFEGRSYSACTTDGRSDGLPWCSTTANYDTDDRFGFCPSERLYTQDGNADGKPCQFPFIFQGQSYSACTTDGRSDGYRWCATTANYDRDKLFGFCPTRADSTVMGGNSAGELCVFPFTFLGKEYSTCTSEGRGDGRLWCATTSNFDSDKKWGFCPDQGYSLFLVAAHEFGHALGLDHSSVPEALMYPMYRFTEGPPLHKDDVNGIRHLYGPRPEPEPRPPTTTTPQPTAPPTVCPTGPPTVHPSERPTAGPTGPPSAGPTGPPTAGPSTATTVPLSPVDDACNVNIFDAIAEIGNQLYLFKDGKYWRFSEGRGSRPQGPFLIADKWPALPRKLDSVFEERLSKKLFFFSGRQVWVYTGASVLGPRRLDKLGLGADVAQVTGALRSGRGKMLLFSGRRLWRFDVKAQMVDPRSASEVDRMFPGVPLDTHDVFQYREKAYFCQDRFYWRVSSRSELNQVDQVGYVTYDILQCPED

| Compound | IC50 ([1]; MMP-9, fluorescence based assay) | IC50 [2] | IC50 [1] | inhibition at 1000 µM [1] |
| --- | --- | --- | --- | --- |
| O=C(NCc1ccc(-c2ccccc2)cc1)c1cccc(=O)n1O [Compound 7, 1,2-HOPO-2] | 2.7 µM | 75 nM |  |  |
| Cc1occc(=O)c1O [Compound 3, 3-hydroxy-2-methyl-4-pyrone] |  |  | 4030 µM | ~50% |
| Cc1occc(=S)c1O [Compound 5, 3-hydroxy-2-methyl-4-pyrothione] |  |  | 138 µM | ~50% |
